Activity calls are given as the source filed them. No cut-off for these calls is given here.
Legend:
[1] = biological target: T1, Stimulator of interferon genes protein (Homo sapiens, UniProt Q86WV6); test: Agonist activity at human STING HAQ variant in human THP1-Blue ISG cells assessed as fold change in stimulation activity measured after 24 hrs incubation by QUANTI-Blue based microplate reader; format: cell-based
Target sequence in this assay (Q86WV6 whole entry, looked up, change not shown): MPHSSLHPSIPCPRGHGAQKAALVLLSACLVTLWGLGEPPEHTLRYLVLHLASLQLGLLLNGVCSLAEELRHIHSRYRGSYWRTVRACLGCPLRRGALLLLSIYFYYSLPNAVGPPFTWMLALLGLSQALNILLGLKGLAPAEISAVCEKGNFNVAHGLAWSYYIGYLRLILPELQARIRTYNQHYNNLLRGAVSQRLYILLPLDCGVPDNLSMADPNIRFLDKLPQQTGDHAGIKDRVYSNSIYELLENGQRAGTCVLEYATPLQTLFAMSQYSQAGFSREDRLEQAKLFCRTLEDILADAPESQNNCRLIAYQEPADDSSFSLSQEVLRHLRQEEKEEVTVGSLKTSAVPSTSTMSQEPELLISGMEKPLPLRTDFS

[2] = biological target: T1, Stimulator of interferon genes protein; test: Binding affinity to wild type His-tagged STING (unknown origin) measured after 3 hrs incubation by HTRF assay
Target sequence in this assay (Q86WV6 whole entry): as the sequence (Q86WV6 whole entry, looked up, change not shown) above

[3] = biological target: T1, Stimulator of interferon genes protein; test: Agonist activity at STING R232 mutant (unknown origin) expressed in human THP1-Dual cells assessed as fold change in stimulation activity measured after 24 hrs incubation by QUANTI-Luc4 based microplate reader; format: cell-based
Target sequence in this assay (Q86WV6 whole entry, looked up, change not shown): as above

[4] = biological target: T2, Stimulator of interferon genes protein (Mus musculus, UniProt Q3TBT3); test: Agonist activity at mouse STING expressed in human THP1-Dual cells assessed as fold change in stimulation activity measured after 24 hrs incubation by QUANTI-Luc4 based microplate reader; format: cell-based
T2 sequence (Q3TBT3 whole entry): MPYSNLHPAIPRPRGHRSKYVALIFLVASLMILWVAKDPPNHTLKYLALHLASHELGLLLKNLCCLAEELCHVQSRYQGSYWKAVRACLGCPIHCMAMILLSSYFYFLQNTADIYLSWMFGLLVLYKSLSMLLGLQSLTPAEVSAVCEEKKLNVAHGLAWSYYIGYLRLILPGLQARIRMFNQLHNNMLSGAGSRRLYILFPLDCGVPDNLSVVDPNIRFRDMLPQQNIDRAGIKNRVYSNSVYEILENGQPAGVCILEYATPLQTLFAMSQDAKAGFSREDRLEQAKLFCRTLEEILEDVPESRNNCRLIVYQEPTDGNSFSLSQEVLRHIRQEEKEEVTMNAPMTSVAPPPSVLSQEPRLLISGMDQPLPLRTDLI

THP-1 [5] = test: Induction of interferon response in STING knock out human THP-1 cells assessed as fold change in stimulation activity at 13 to 25 uM measured after 24 hrs incubation by QUANTI-Luc4 based microplate reader; format: functional, cell-based; conditions: dose 13-25 µM
THP-1 [6] = test: Induction of interferon secretion in human THP-1 cells assessed as IFN-beta level at 13 uM measured after 24 hrs by ELISA; format: functional, cell-based
THP1-Blue ISG = test: Induction of STING phosphorylation in human THP1-Blue ISG cells at 13 to 50 uM measured after 3 hrs by Western blot analysis; format: cell-based; conditions: filed as agonist, dose 13-50 µM
[7] = biological target: T3, Interferon regulatory factor 3 (Homo sapiens) (UniProt Q14653); test: Induction of IRF3 phosphorylation in human THP1-Blue ISG cells at 13 to 50 uM measured after 3 hrs by Western blot analysis; format: cell-based; conditions: filed as agonist, dose 13-50 µM
T3 sequence (whole entry): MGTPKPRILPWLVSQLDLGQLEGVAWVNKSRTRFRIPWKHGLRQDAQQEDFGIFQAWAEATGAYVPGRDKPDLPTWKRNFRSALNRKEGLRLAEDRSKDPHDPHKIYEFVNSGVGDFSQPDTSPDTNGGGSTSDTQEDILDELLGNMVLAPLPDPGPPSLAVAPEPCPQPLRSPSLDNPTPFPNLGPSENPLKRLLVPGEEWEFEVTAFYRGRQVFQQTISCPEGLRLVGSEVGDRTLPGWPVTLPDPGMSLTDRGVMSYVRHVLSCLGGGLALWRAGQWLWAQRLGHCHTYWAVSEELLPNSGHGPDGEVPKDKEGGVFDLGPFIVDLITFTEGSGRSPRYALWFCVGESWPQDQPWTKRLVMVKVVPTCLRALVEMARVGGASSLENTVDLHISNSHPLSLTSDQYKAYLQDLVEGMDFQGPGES

[8] = Chemical stability of the compound in MeOH/H2O assessed as half life by LC-MS/MS analysis; format: physicochemical
MC-38 [9] = test: In vivo antitumor activity against mouse MC-38 cells inoculated in C57BL/6 mouse assessed as complete tumor regression (CR) at 60 mg/kg, po Q3D co-administered with anti-PD1 measured for 15 to 20 days; format: functional; conditions: time 15-20 day
MC-38 [10] = test: In vivo antitumor activity against mouse MC-38 cells inoculated in C57BL/6 mouse assessed as complete tumor regression (CR) at 60 mg/kg, po Q3D measured for 15 to 20 days; format: functional, organism-based; conditions: time 15-20 day
MC-38 [11] = test: In vivo antitumor activity against mouse MC-38 cells inoculated in C57BL/6 mouse assessed as as increase in moue survival time at 60 mg/kg, po Q3D measured for 15 to 20 days; format: functional, organism-based; conditions: time 15-20 day
[12] = Metabolic stability in mouse liver microsomes assessed as half life at 10 uM measured up to 60 mins by LC-MS/MS analysis; format: ADME, Microsome
[13] = Metabolic stability in human liver microsomes assessed as half life at 10 uM measured up to 60 mins by LC-MS/MS analysis; format: ADME, Microsome
[14] = Stability of the compound in human plasma assessed as half life by LC-MS/MS analysis; format: ADME, cell-free
[15] = Stability of the compound in mouse plasma assessed as half life by LC-MS/MS analysis; format: ADME, cell-free
[16] = Chemical stability of the compound in MeOH/H2O solvent assessed as half life by LC-MS/MS analysis; format: physicochemical
[17] = biological target: T1, Stimulator of interferon genes protein; test: Agonist activity at human STING in human THP1-Blue ISG cells measured after 24 hrs incubation by QUANTI-Blue based microplate reader; format: cell-based
Target sequence in this assay (Q86WV6 whole entry): as the sequence (Q86WV6 whole entry, looked up, change not shown) above

## COc1cc2sc(C(=O)NCCC(=O)NS(C)(=O)=O)c(F)c2cc1OC
[1]
  EC50: > 100 µM

## COc1cc2sc(C(=O)NCC3(C(=O)O)CC3)c(F)c2cc1OC
[1]
  EC50: > 100 µM

## COc1cc2sc(C(=O)NC[C@@H](C)C(=O)O)c(F)c2cc1OC
[2]
  IC50: 28.7 µM
[1]
  EC50: 4.7 µM
[3]
  EC50: 36.5 µM
[4]
  EC50: 27.9 µM

## CONC(=O)CCNC(=O)c1sc2cc(OC)c(OC)cc2c1F
[1]
  EC50: 33 µM

## CCC(CNC(=O)c1[se]c2cc(OC)c(OC)cc2c1F)C(=O)O (configuration not stated)
[1]
  EC50: 3.8 µM
[3]
  EC50: 13.3 µM
[4]
  EC50: 12.5 µM

## COc1cc2sc(C(=O)NCCC(=O)O)c(Br)c2cc1OC
[1]
  EC50: 47.2 µM

## COc1cc2sc(C(=O)NCC(=O)O)c(F)c2cc1OC
[1]
  EC50: > 100 µM

## COc1cc2sc(C(=O)NCCC(=O)O)c(F)c2cc1OC(C)C
[1]
  EC50: > 100 µM

## CCC(CNC(=O)c1sc2cc(OC)c(OC)c(F)c2c1F)C(=O)O (configuration not stated)
[1]
  EC50: > 100 µM

## COc1cc2sc(C(=O)NCCS(N)(=O)=O)c(F)c2cc1OC
[1]
  EC50: > 100 µM

## COc1ccc2c(F)c(C(=O)NCCC(=O)O)sc2c1
[1]
  EC50: > 100 µM

## COc1cc2sc(C(=O)N[C@@H](CC(=O)O)C(N)=O)c(F)c2cc1OC
[1]
  EC50: > 100 µM

## C#Cc1c(C(=O)NCCC(=O)O)sc2cc(OC)c(OC)cc12
[1]
  EC50: > 100 µM

## CC[C@@H](CNC(=O)c1sc2cc(OC)c(OC)cc2c1F)C(=O)O
[2]
  IC50: 65.5 µM
[1]
  EC50: 11.3 µM
[3]
  EC50: 51.3 µM
[4]
  EC50: 45.9 µM

## C=Cc1cc2c(F)c(C(=O)NCCC(=O)O)sc2cc1OC
[1]
  EC50: > 100 µM

## CC[C@H](CNC(=O)c1sc2cc(OC)c(OC)cc2c1F)C(=O)O
[2]
  IC50: 24.1 µM
[1]
  EC50: 5.1 µM
[3]
  EC50: 12 µM
[4]
  EC50: 11.9 µM
THP-1 [5]
  Activity: inactive
THP-1 [6]
  Activity: Active
THP1-Blue ISG
  Activity: Active
[7]
  Activity: Active

## COc1cc2sc3c(c2cc1OC)C(=O)N(CCC(=O)O)C3=O
[2]
  IC50: 22.1 µM
[8]
  half-life: 21 h
[1]
  EC50: 4.5 µM
[3]
  EC50: 19.6 µM
[4]
  EC50: 25.3 µM
MC-38 [9]
  Activity: 60%
MC-38 [10]
  Activity: inactive
MC-38 [11]
  Activity: inactive
[12]
  half-life at 10 µM: > 1 h
[13]
  half-life at 10 µM: > 1 h
[14]
  half-life: 0.5 h
[15]
  half-life: > 1 h
[16]
  half-life: 0.35 h

## COc1cc2sc(C(=O)NCC(F)(F)C(=O)O)c(F)c2cc1OC
[1]
  EC50: > 100 µM

## COc1cc2sc(C(=O)NCCC(N)=O)c(F)c2cc1OC
[1]
  EC50: > 100 µM

## COc1cc2sc(C(=O)NCCCC(=O)O)c(F)c2cc1OC
[1]
  EC50: 54.6 µM

## COc1cc2sc(C(=O)NCCC(=O)O)c(Cl)c2cc1OC
[1]
  EC50: 26.5 µM

## CCOc1cc2c(F)c(C(=O)NCCC(=O)O)sc2cc1OC
[1]
  EC50: > 100 µM

## COc1cc2sc(C(=O)NC(C)(C)CC(=O)O)c(F)c2cc1OC
[1]
  EC50: > 100 µM

## CCC(CNC(=O)c1sc2cc(OC)c(OC)cc2c1F)C(=O)O (racemic)
[2]
  IC50: 24.6 µM
[1]
  EC50: 4.8 µM
[3]
  EC50: 17.2 µM
[4]
  EC50: 15.7 µM

## COc1cc2sc(C(=O)NCCC(O)(C(F)(F)F)C(F)(F)F)c(F)c2cc1OC
[1]
  EC50: > 100 µM

## CCC(CNC(=O)c1sc2c(F)c(OC)c(OC)cc2c1F)C(=O)O (configuration not stated)
[2]
  IC50: 75.2 µM
[1]
  EC50: 3.5 µM
[3]
  EC50: 85.9 µM
[4]
  EC50: 92.7 µM

## COc1cc2sc(C(=O)NCCB(O)O)c(F)c2cc1OC
[1]
  EC50: > 100 µM

## COc1cc2sc(C(=O)N[C@@H](C)CC(=O)O)c(F)c2cc1OC
[1]
  EC50: > 100 µM

## COc1cc2sc(C(=O)NCCC(=O)O)c(F)c2cc1OC
[17]
  EC50: 30.3 µM
[2]
  IC50: 49.8 µM
[8]
  half-life: > 48 h
[1]
  EC50: 30.3 µM

## COc1cc2sc(C(=O)NCCC(=O)O)c(C)c2cc1OC
[1]
  EC50: > 100 µM

## COc1cc2sc(C(=O)NCCc3nnn[nH]3)c(F)c2cc1OC
[1]
  EC50: > 100 µM

## COc1cc2sc(C(=O)NC[C@H](C)C(=O)O)c(F)c2cc1OC
[2]
  IC50: 33.3 µM
[1]
  EC50: 6.2 µM
[3]
  EC50: 58.5 µM
[4]
  EC50: 61.2 µM

## COc1cc2sc(C(=O)NCC(C)(C)C(=O)O)c(F)c2cc1OC
[1]
  EC50: > 100 µM

## CONC(=O)C(F)(F)CNC(=O)c1sc2cc(OC)c(Br)cc2c1F
[1]
  EC50: > 100 µM

## COc1cc2sc(C(=O)NCCC(=O)O)c(F)c2cc1F
[1]
  EC50: > 100 µM

## CCC(CNC(=O)c1sc2cc(Br)c(OC)cc2c1F)C(=O)O (configuration not stated)
[2]
  IC50: > 100 µM
[1]
  EC50: 13.2 µM
[3]
  EC50: > 100 µM
[4]
  EC50: > 100 µM

## COc1cc2sc(C(=O)NCC3(C(=O)O)CCC3)c(F)c2cc1OC
[2]
  IC50: 31.2 µM
[1]
  EC50: 3.7 µM
[3]
  EC50: 18.4 µM
[4]
  EC50: 22 µM

## COc1cc2sc(C(=O)N[C@H](C)CC(=O)O)c(F)c2cc1OC
[1]
  EC50: > 100 µM

## COc1cc2sc(C(=O)NCC(C)C(=O)O)c(F)c2cc1Br (configuration not stated)
[1]
  EC50: > 100 µM

## COc1cc2sc(C(=O)NCCC(=O)O)c(I)c2cc1OC
[1]
  EC50: > 100 µM

## COc1cc2sc(C(=O)NCC(C)C(=O)O)c(F)c2cc1OC (racemic)
[2]
  IC50: 30.6 µM
[1]
  EC50: 7.1 µM
[3]
  EC50: 33.1 µM
[4]
  EC50: 25.1 µM

## CONC(=O)C(C)CNC(=O)c1sc2cc(OC)c(Br)cc2c1F (configuration not stated)
[1]
  EC50: > 100 µM

## COc1cc2cc(C(=O)NCCC(=O)O)sc2cc1OC
[17]
  EC50: > 100 µM
[2]
  IC50: > 100 µM

## COc1cc2[se]c(C(=O)NCC(C)C(=O)O)c(F)c2cc1OC (configuration not stated)
[1]
  EC50: 5.7 µM
[3]
  EC50: 26.1 µM
[4]
  EC50: 27 µM

## CCC(CNC(=O)c1sc2cc(OC)c(OC(F)F)cc2c1F)C(=O)O (configuration not stated)
[1]
  EC50: > 100 µM

## COc1cc2sc(C(=O)NCC(F)(F)C(=O)O)c(F)c2cc1Br
[1]
  EC50: > 100 µM

From ChEMBL document CHEMBL6178018, “Design of an Oral STING Agonist through Intramolecular Hydrogen Bond Ring Mimicking to Achieve Complete Tumor Regression” (J Med Chem, 2025)
